Measured values from patent US5410052A, “Symmetrical and unsymmetrical polyalkylamine metal complexes for ligand extraction and generation” (The Regents of the University of California, priority 1990, dated 1995).
Where two headings read alike, the source gives them in different places.

Tests used:
[1] = Potentiometric pH titration of polyalkylamines: protonation constants (basicity); type: physicochemical; conditions: 25°±0.1° C., ca. 1.5 mM PAA; Ref. 3 determined by applicants
Description: the equilibrium constants for successive protonations of the PAA compounds are defined by
KHi =[PAA(H^+)i ]/[PAA(H^+)i-1 ] [H^+ ](10)
Where spectrophotometric characterization of a particular cobalt carrier compound has proven satisfactory, both the polyalkylamine and the cobalt carrier compound are characterized by a set of potentiometric pH titrations to determine the basicity of the ligating atoms, the formation constants KML and KMLH, and the apparent oxygen binding equilibrium constants.
Potentiometric titrations are performed using a Fisher or Cole-Palmer pH meter in a sealed, jacketed glass cell equipped with glass and calomel electrodes and with provisions for performing measurements under oxygen-free conditions. The cell is kept at a constant temperature of 25°±0.1° C. by circulating water from a thermostated bath through the cell jacket. The electrodes and pH meter are standardized with commercially available standard buffer solutions (Fisher Scientific). The polyalkylamine ligands and cobalt carrier compounds were each titrated potentiometrically by incrementally adding standard potassium hydroxide solution and recording the pH of the solution after each addition of base. Titrations of the cobalt carrier compounds are carried out under prepurified nitrogen or argon; titrations of oxygenated carrier compounds are performed under oxygen treated with Ascarite to remove carbon dioxide.
All solutions contained ca. 1.5 mM PAA; for titrations of cobalt complexes, the solutions contained, in addition, 1.5 mM CoCl2.
Typical results obtained as outlined above from pH titrations of selected polyalkylamines, cobalt carrier compounds, and oxygen complexes of cobalt carrier compounds are graphically depicted in FIGS. 2, 3, and 4, and summarized in Table III. The values shown in Table III, defined by equations (6)-(8) and (10). above, were derived either by direct measurement from the titration curves obtained, or determined by the iterative best fit of the data to a computer program such as that described by Harris, et al., Inorganic Chemistry, vol. 17, p. 889, 890 (1978). Generally, although the latter values are considered to be more reliable, values obtained by either methods are approximately the same and sufficient for the present evaluation.

[2] = literature, Ref. 1, 2 or 4; cited from earlier work
[3] = set-up: key to Log K02 (symbol): *: Oxygen complex is unstable.; **: No oxygen complex observed; conditions: cobalt complex, literature, cited from earlier work; for Log K02: dimeric oxygen complex, Ref. 1 or 4
[4] = Cyclic voltammetry of Co(PAA)n+ carrier compounds; type: physicochemical; set-up: key to ΔE / EPA / EPC: N.O.: not observed due to low electrochemical activity
Method: Cyclic voltammentry experiments were performed under nitrogen or iar for the unoxygenated or oxygenated carrier compounds, respectively, in a cell having a platinum wire auxiliary electrode, a silver-silver chloride reference electrode, and suitable working electrode. The potential between the auxiliary and working electrodes was varied with a Princeton Applied Research (Princeton, N.J.) Scanning Potentiostate at 50 mV/s from a suitable initial with a suitable initial scan direction (Scan Dir.), depending on the electrochemical potentials if interest. All solutions contained 1 mM CoCl2, 1 mM or 1.5 mM PAA, and a supporting electrolyte, and were buffered to a suitable pH, usually about the initial working pH.
Cyclic voltammetry enables the estimation of anode (EPA) and cathode (EPC) half cell potentials, the cell potential ΔE=(EPA -EPC), and an approximate formal reaction potential […]. In addition, estimates of the rate of electron transfer to a particular electrode and electrochemical reversibility of the reaction can be obtained.

[5] = UV-visible spectroscopic evaluation of oxygen complex formation by cobalt carrier compounds; type: binding
Description: Initially, solutions of particular carrier compounds are monitored by UV-visible spectroscopy to determine whether the carrier compound forms oxygen complexes of sufficient stability as to be potentially useful in processes according to the present invention. UV-visible spectra of carrier compounds are also observed as a function of the pH to determine the pH range, if any, over which the carrier compounds bind oxygen without decomposition. The initial pH for use in further experiments (the "Working pH") is defined as one pH unit above that at which the proportion of carrier compound-oxygen complex is about 90% or more of the maximum formed under ca. 0.2 atm oxygen, as determined by this spectroscopic examination. […] An initial working pH can also be determined from potentiometric experiments on the oxygen complexes of cobalt carrier compounds, as will be discussed below.
The necessary UV and visible spectra necessary for this evaluation are obtained with any of a variety of commercially available spectrophotometers. The solution to be measured is prepared in or transferred to a suitable quartz cell with provision for the exclusion of oxygen. […] Spectra are then recorded under both oxygen free and oxygenated conditions at each of the desired pH values.

[6] = deox, 1.0 mM PAA, pH 7.6, 0.5M NaCl/0.1M K2HPO4, gold, Einitial -0.3 V, scan +
[7] = ox, 1.0 mM PAA, pH 7.6, 0.5M KCl/0.1M K2HPO4, gold, Einitial +0.3 V, scan +
[8] = deox, 1.0 mM PAA, pH 10.1, 0.5M KCl/0.1M K2HPO4, glassy carbon, Einitial +0.15 V, scan -
[9] = ox, 1.0 mM PAA, pH 10.1, 0.5M KCl/0.1M K2HPO4, glassy carbon, Einitial +0.1 V, scan +
[10] = ox, 1.0 mM PAA, pH 6.0, 0.5M KCl/0.1M K2HPO4, glassy carbon, Einitial +0.1 V, scan +
[11] = ox, 1.0 mM PAA, pH 12.0, 0.5M KCl/0.1M K2HPO4, glassy carbon, Einitial +0.19 V, scan -
[12] = deox, 1.0 mM PAA, pH 5.93, 0.5M KCl/0.1M K2HPO4, glassy carbon, Einitial +0.1 V, scan +
[13] = ox, 1.0 mM PAA, pH 5.93, 0.5M KCl/0.1M K2HPO4, glassy carbon, Einitial +0.1 V, scan +
[14] = ox, 1.0 mM PAA, pH 3.0, 0.5M KCl/0.1M K2HPO4, glassy carbon, Einitial -0.05 V, scan +
[15] = deox, 1.5 mM PAA, pH 9.0, 0.5M NaCl/0.1M Borate, glassy carbon, Einitial -0.3 V, scan +
[16] = ox, 1.5 mM PAA, pH 9.0, 0.5M NaCl/0.1M Borate, glassy carbon, Einitial -0.3 V, scan +
[17] = deox, 1.5 mM PAA, pH 3.0, 0.5M KCl/0.1M K2HPO4, gold, Einitial -0.3 V, scan +
[18] = ox, 1.0 mM PAA, pH 9.0, 0.5M NaCl/0.1M Borate, gold, Einitial +0.12 V, scan +

Log K1 [1]	Log K2 [1]	Log K3 [1]	Log K4 [1]	SMILES	Log K1 [2]	Log K2 [2]	Log K3 [2]	Log K4 [2]	Log K02 [3]	further results
9.54	7.44	6.34		c1ccc(CNCCCNCCCNCc2ccccn2)nc1 [compound 64]	9.92	7.63	6.76	1.79	7.7	EPA [4, 6]: 0.4 V; EPC [4, 6]: -0.45 V; E° [4, 6]: -0.05 V; ΔE [4, 6]: 0.85 V; EPA [4, 7]: 0.08 V; EPC [4, 7]: -0.4 V; ΔE [4, 7]: 1.2 V
7.74	6.69	2.95		c1ccc(CNCc2cccc(CNCc3ccccn3)n2)nc1 [compound 21]	7.55	6.86	3.2	2.9		Log K02 (symbol) ([3]; Ref. 2): *
9.44	7.40	6.25	3.40	Cc1cccc(CNCCCNCCCNCc2cccc(C)n2)n1 [compound 81]						
9.36	7.69	6.60		c1ccc(CNCCCCNCCCNCc2ccccn2)nc1 [compound 78]						EPA [4, 8]: 0.18 V; EPC [4, 8]: 0.1 V; E° [4, 8]: 0.14 V; ΔE [4, 8]: 0.08 V; EPA [4, 9]: 0.185 V; EPC [4, 9]: 0.055 V; E° [4, 9]: 0.12 V; ΔE [4, 9]: 0.13 V
8.75	7.61	3.81		c1ccc(CCNCc2cccc(CNCCc3ccccn3)n2)nc1 [compound 63]						EPA [4, 10]: N.O.; EPC [4, 10]: N.O.; ΔE [4, 10]: N.O.
8.52	6.72	4.1	3.28	Cc1cccc(CNCCNCCNCc2cccc(C)n2)n1 [compound 80]						Log K5 [1]: 2.86
9.15	7.20	5.79	3.40	CN(CCCNCc1ccccn1)CCCNCc1ccccn1 [compound 76]						EPA [4, 11]: 0.25 V; EPC [4, 11]: -0.35 V; ΔE [4, 11]: 0.6 V
8.6	6.75	4.76		c1ccc(CNCCCNCCNCc2ccccn2)nc1 [compound 72]						EPA [4, 12]: 0.03 V; EPC [4, 12]: 0.66 V; E° [4, 12]: -0.02 V; ΔE [4, 12]: 0.11 V; EPA [4, 13]: 0.66 V; EPC [4, 13]: -0.07 V; ΔE [4, 13]: 0.73 V
8.91	6.95	3.64		c1ccc(CNCCNCCNCc2ccccn2)nc1 [compound 62]	8.88	7.04	3.82	1.44	11.4	EPA [4, 17]: 0.0 V; EPC [4, 17]: -0.1 V; E° [4, 17]: -0.05 V; ΔE [4, 17]: 0.1 V; EPA [4, 18]: 0.75 V; EPC [4, 18]: -0.55 V; ΔE [4, 18]: 1.3 V

The next lines start with the molecule.

SMILES	Log K1 [1]	Log K2 [1]	Log K3 [1]	Log K4 [1]	Log K1 [2]	Log K2 [2]	Log K3 [2]	Log K4 [2]	Log K02 [3]	further results
c1nc(CNCCCNCCCNCc2c[nH]cn2)c[nH]1 [compound 74]	9.75	8.58	7.2	4.75	10.12	8.62	7.36	4.51	9.49	Log K5 [1]: 3.75; Log K5 [2]: 3.82
c1c[nH]c(CNCCCNCCCNCc2ncc[nH]2)n1 [compound 73]					9.76	7.22	6.51	3.92	8.63	Log K5 [2]: 3.29
c1nc(CNCCNCCNCc2c[nH]cn2)c[nH]1 [compound 75]	9.15	8.03	4.92	3.91	9.22	8.18	4.91	3.90		Log K5 [2]: 2.92
NCCNCc1cccc(CNCCN)n1 [compound 69]	9.31	8.6	5.9	4.74						EPA [4, 14]: 0.5 V; EPC [4, 14]: -0.2 V; ΔE [4, 14]: 0.7 V
CN(CCCNCc1ccccn1)CCCNCc1ccccn1 [PAA No. 76, 1,11-Bis(2-Pyridyl)-6-Methyl-2,6,10-Triazaundecane]										oxygen binding of the cobalt complex ([5]; cobalt complex of the PAA, spectrophotometric analysis, under conditions of interest): does not appear to bind oxygen
NCCNCCNCCNCCN [compound 33]					9.85	9.27	8.19	5.08	15.83	Log K5 [2]: 3.43; EPA [4, 15]: -0.33 V; EPC [4, 15]: -0.45 V; E° [4, 15]: -0.39 V; ΔE [4, 15]: 0.12 V; EPA [4, 16]: 0.7 V; EPC [4, 16]: -0.5 V; ΔE [4, 16]: 1.2 V
c1ccc(CNCc2cccc(CNCc3ccccn3)n2)nc1 [PAA No. 21, 2,6-Bis(l-(3-(2-Pyridyl)-2-Azapropyl))Pyridine]										oxidation of the cobalt ion of the Co(II) complex ([5]; Co(II) complex of the PAA): relatively rapid, irreversible oxidation of the cobalt ion to Co(III)
